The values below come from patent US20110059869A1, “Method for Increasing Enzymatic Reactivity” (RIKEN, priority 2008, published 2011).

Series [1] deals with HindIII. Kind of series: DNA fragment II HindIII cleavage reactions on bead and plate surfaces with added substances. Type of series: biochemical. As to conditions: 0.6 M sorbitol; beads and plate; not of the same degree as trehalose. Here is the method:
The effect of the presence of substances other than trehalose on enzymatic activity was examined for enzymatic reactions on the surface of a support. Sorbitol was employed as the added reagent. Trehalose was also added and a sorbitol+trehalose reaction system was examined (Scheme 7).
HindIII cleavage reactions were conducted on biotin-labeled DNA fragment II (Seq. ID No. 5, Scheme 4) on the surface of beads by adding trehalose, glucose, sorbitol, and betaine, and the 104 by DNA fragment released was detected. Paramagnetic streptavidin beads were washed with accessory 1× binding buffer, recovered with a magnetic stand to remove the supernatant, and suspended in the same buffer. […] The precipitate of DNA fragments thus obtained was dissolved in 1× TE (pH 7.5) and analyzed with Bioanalyzer DNA 1000 assay (Agilent Technologies).
Trehalose and sorbitol were added and a HindIII cleavage reaction was conducted on a horizontal plate surface on biotin-labeled DNA fragment II (Seq. ID No. 5, Scheme 4) and the 104 by DNA fragments that were released were detected. […] The precipitate of DNA fragments obtained was dissolved in 1× TE (pH 7.5) and analyzed with Bioanalyzer DNA 1000 assay (Agilent Technologies).

Series [2] is described as follows: State of streptavidin bead reaction solution during enzymatic reaction. Type of series: physicochemical. As to conditions: 0.6 M additive; extended / three hours restriction enzyme reaction. The source says: Thus, with no nonuniformity in enzymatic activity, the various enzymatic reactions were promoted and the quantity of target DNA recovered increased.
This was attributed to characteristics such as the viscosity and diffusing effect of trehalose or sorbitol.

Each structure is given as a SMILES string.

As to `OC[C@@H](O)[C@@H](O)[C@H](O)[C@@H](O)CO` [sorbitol, D(+) sorbitol], the “enzymatic activity (yield of DNA recovered)” value in series [1] is given as “high enzymatic activity was exhibited on all reaction surfaces”. Besides, the “uniformity of beads in the reaction solution” value in series [2] is “uniformity in the solution of beads was maintained”.
